Experimental data taken from US10696651B2, “Heterocyclic compound” (Takeda Pharmaceutical Company Limited, priority 2016, dated 2020).

How the values were obtained:
[1] = test system: osteosarcoma cell line U-2-OS; experiment: In vitro cell proliferation inhibition assay (CellTiter-Glo, low amino acid media); assay type: cell-based; details: Homo sapiens, U2OS, 72 h, cell proliferation inhibitory rate, McCoy's 5A low amino acid media, Table 4-2
Protocol: A cell suspension (40 μL) (1000 cells/well) of osteosarcoma cell line U-2-OS obtained from ATCC (American Type Culture Collection) was seeded on a 384 plate using McCoy's 5A low amino acid media (amino acid content 25%). The seeded cells were incubated (37° C., 5% CO2) overnight to 24 hr at the longest. Each example compound was dissolved (10 mM) in DMSO, delivered to wells by using TECAN HP D300 (TECAN), and the plate was incubated for 72 hr (37° C., 5% CO2). A well without addition of compound was treated similarly as a control group. Celltiter-Glo (registered trade mark) Luminescent Cell Viability Assay reagent (Promega KK) equilibrated at room temperature was added (40 μL/well) to cells in each well before compound treatment (untreated group) and 72 hours after compound treatment. After incubation for 10 min, cell proliferation inhibitory rate was measured by the amount of ATP which is a cell viability marker. Luminescence of cells showing ATP amount was measured using ARVO MX (PerkinElmer). Based on the luminescence values of the untreatment group, the control group without addition of Example compound solution, and the treatment group with addition of Example compound, the cell proliferation inhibitory rate (%) of the test compound at a compound concentration of 100 nM was calculated by the following formula and the results thereof are shown in Tables 4-1, 4-2. Inhibitory rate (%)=(1−(luminescence value of treatment group−luminescence value of untreatment group)÷(luminescence value of control group−luminescence value of untreatment group))×100

[2] = target: T1, human GCN2 full-length protein (Homo sapiens, UniProt Q9P2K8); experiment: GCN2 enzyme inhibition assay (LanthaScreen TR-FRET); assay type: biochemical; details: GCN2 enzyme inhibitory activity at compound concentration of 3 μM; Table 3-2; read-out: inhibitory rate
T1 construct: purchased Carna Biosciences, Inc
T1 sequence (Q9P2K8 whole entry): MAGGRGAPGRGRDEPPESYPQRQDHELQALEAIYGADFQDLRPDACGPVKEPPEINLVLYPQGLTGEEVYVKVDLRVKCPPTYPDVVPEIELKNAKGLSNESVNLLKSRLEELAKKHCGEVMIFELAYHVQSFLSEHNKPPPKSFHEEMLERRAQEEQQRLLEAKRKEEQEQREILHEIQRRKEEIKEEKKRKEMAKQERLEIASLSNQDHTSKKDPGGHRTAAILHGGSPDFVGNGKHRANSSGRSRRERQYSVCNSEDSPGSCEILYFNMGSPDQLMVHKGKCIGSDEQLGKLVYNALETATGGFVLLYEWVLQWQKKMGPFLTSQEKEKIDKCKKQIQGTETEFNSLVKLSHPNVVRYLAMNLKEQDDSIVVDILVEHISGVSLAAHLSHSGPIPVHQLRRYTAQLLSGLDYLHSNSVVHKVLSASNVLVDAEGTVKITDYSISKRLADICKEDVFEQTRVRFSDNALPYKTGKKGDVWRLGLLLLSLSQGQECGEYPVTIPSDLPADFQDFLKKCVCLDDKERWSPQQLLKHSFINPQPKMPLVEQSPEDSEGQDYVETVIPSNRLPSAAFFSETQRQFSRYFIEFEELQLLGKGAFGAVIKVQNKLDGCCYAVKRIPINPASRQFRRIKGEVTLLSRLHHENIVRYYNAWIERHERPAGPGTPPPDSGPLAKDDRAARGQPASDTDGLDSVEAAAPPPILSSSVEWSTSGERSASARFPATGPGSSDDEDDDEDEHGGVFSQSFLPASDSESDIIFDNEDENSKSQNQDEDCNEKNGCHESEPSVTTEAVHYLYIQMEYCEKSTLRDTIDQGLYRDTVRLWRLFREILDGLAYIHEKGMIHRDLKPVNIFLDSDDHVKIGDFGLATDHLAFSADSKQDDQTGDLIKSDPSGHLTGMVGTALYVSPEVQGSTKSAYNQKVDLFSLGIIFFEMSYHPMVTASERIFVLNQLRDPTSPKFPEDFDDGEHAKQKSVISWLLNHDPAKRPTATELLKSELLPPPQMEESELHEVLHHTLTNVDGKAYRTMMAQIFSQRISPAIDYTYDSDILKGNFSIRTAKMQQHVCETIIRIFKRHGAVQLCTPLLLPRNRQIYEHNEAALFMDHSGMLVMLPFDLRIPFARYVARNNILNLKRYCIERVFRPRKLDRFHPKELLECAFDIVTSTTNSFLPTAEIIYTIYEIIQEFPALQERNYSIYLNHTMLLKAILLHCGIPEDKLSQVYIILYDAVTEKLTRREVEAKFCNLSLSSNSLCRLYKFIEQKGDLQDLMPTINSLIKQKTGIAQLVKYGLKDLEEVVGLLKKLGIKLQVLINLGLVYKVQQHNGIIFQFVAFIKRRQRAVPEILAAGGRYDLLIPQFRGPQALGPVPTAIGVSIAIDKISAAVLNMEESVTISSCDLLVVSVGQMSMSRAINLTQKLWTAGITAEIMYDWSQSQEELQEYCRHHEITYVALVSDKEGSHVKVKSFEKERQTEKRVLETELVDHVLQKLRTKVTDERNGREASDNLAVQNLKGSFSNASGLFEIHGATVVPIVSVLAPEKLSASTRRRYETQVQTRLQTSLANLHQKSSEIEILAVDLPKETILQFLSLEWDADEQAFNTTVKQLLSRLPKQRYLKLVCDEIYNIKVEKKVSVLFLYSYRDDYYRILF
Protocol: GCN2 enzyme was preserved at -70° C. and used. The GCN2 enzyme inhibitory activity of the test compound was measured by the LanthaScreenTR-FRET (Time Resolved Fluorescence Resonance Energy Transfer) method (manufactured by ThermoFisher). […] Then, GCN2 enzyme solution diluted with the assay buffer was added by 2 μL to each well. The enzyme solution was not added to a part of the wells to give a control group. After incubation at room temperature for 1 hr, 570 μM ATP solution containing 390 nM […] physiological protein substrate (ThermoFisher) was added by 2 μL. After reaction at room temperature for 1 hr, TR-FRET Dilution Buffer (ThermoFisher) containing 4 nM Terbium-labeled anti-elF2alpha [[…]] antibody (ThermoFisher) dissolved therein was added by 2 μL to each well. After standing at room temperature for 1 hr, time decomposition fluorescence measurement was performed on platereader Envision (manufactured by PerkinElmer).

inhibition at 3 µM [2] | Compound | inhibition at 0.1 µM [1]
99% | COc1c(CO)cc(Cl)cc1S(=O)(=O)Nc1ccc(F)c(C#Cc2cnc(NC3CC3)nc2)c1F [Example 138, 5-chloro-N-(3-((2-(cyclopropylamino)pyrimidin-5-yl)ethynyl)-2,4-difluorophenyl)-3-(hydroxymethyl)-2-methoxybenzenesulfonamide] | 87%
99% | COc1c(CO)cc(Cl)cc1S(=O)(=O)Nc1ccc(F)c(C#Cc2cnc(NC3COC3)nc2)c1F [Example 140, 5-chloro-N-(2,4-difluoro-3-((2-(oxetan-3-ylamino)pyrimidin-5-yl)ethynyl)phenyl)-3-(hydroxymethyl)-2-methoxybenzenesulfonamide] | 76%
99% | COc1c(CO)cc(Cl)cc1S(=O)(=O)Nc1ccc(F)c(C#Cc2cnc(NC3CCOC3)nc2)c1F (stereo not shown) [Example 141, 5-chloro-N-(2,4-difluoro-3-((2-(tetrahydrofuran-3-ylamino)pyrimidin-5-yl)ethynyl)phenyl)-3-(hydroxymethyl)-2-methoxybenzenesulfonamide] | 75%
99% | COc1c(CO)cc(Cl)cc1S(=O)(=O)Nc1ccc(F)c(C#Cc2cnc(NCC3CCOC3)nc2)c1F (stereo not shown) [Example 145, 5-chloro-N-(2,4-difluoro-3-((2-((tetrahydrofuran-3-ylmethyl)amino)pyrimidin-5-yl)ethynyl)phenyl)-3-(hydroxymethyl)-2-methoxybenzenesulfonamide] | 69%
99% | COc1c(CO)cc(Cl)cc1S(=O)(=O)Nc1ccc(F)c(C#Cc2cnc(NCCO)nc2)c1F [Example 149, 5-chloro-N-(2,4-difluoro-3-((2-((2-hydroxyethyl)amino)pyrimidin-5-yl)ethynyl)phenyl)-3-(hydroxymethyl)-2-methoxybenzenesulfonamide] | 70%
99% | COc1c(CO)cc(Cl)cc1S(=O)(=O)Nc1ccc(F)c(C#Cc2cnc(N[C@H](C)CO)nc2)c1F [Example 150, 5-chloro-N-(2,4-difluoro-3-((2-(((2R)-1-hydroxypropan-2-yl)amino)pyrimidin-5-yl)ethynyl)phenyl)-3-(hydroxymethyl)-2-methoxybenzenesulfonamide] | 77%
99% | COc1c(CO)cc(Cl)cc1S(=O)(=O)Nc1ccc(F)c(C#Cc2cnc(N[C@H]3CC[C@H](O)CC3)nc2)c1F [Example 153, 5-chloro-N-(2,4-difluoro-3-((2-((trans-4-hydroxycyclohexyl)amino)pyrimidin-5-yl)ethynyl)phenyl)-3-(hydroxymethyl)-2-methoxybenzenesulfonamide] | 78%
99% | Cc1ncc(Cl)cc1S(=O)(=O)Nc1ccc(F)c(C#Cc2cnc(N)nn2)c1F [Example 158, N-(3-((3-amino-1,2,4-triazin-6-yl)ethynyl)-2,4-difluorophenyl)-5-chloro-2-methylpyridine-3-sulfonamide] | 43%
99% | Nc1ncc(C#Cc2c(F)ccc(NS(=O)(=O)c3cc(Cl)cc4c3OCC4O)c2F)cn1 (stereo not shown) [Example 159, N-(3-((2-aminopyrimidin-5-yl)ethynyl)-2,4-difluorophenyl)-5-chloro-3-hydroxy-2,3-dihydro-1-benzofuran-7-sulfonamide] | 60%
99% | Nc1ncc(C#Cc2c(F)ccc(NS(=O)(=O)c3cc(Cl)cnc3OC(F)F)c2F)cn1 [Example 162, N-(3-((2-aminopyrimidin-5-yl)ethynyl)-2,4-difluorophenyl)-5-chloro-2-(difluoromethoxy)pyridine-3-sulfonamide] | 35%
100% | Cc1ncc(Cl)cc1S(=O)(=O)Nc1ccc(F)c(C#Cc2cnc(Nc3cnn(C)c3)nc2)c1F [Example 163, 5-chloro-N-(2,4-difluoro-3-((2-((1-methyl-1H-pyrazol-4-yl)amino)pyrimidin-5-yl)ethynyl)phenyl)-2-methylpyridine-3-sulfonamide] | 88%
96% | Nc1ncc(C#Cc2c(F)ccc(NS(=O)(=O)c3cc(Cl)cn4c(Cl)cnc34)c2F)cn1 [Example 165, N-(3-((2-aminopyrimidin-5-yl)ethynyl)-2,4-difluorophenyl)-3,6-dichloroimidazo[1,2-a]pyridine-8-sulfonamide] | 27%
99% | COc1c(CO)cc(Cl)cc1S(=O)(=O)Nc1ccc(F)c(C#Cc2cnc(NC3CC3)nn2)c1F [Example 168, 5-chloro-N-(3-((3-(cyclopropylamino)-1,2,4-triazin-6-yl)ethynyl)-2,4-difluorophenyl)-3-(hydroxymethyl)-2-methoxybenzenesulfonamide] | 57%
100% | CNc1ncc(Cl)cc1S(=O)(=O)Nc1ccc(F)c(C#Cc2cnc(N)nc2)c1F [Example 171, N-(3-((2-aminopyrimidin-5-yl)ethynyl)-2,4-difluorophenyl)-5-chloro-2-(methylamino)pyridine-3-sulfonamide] | 82%
99% | Nc1ncc(C#Cc2c(F)ccc(NS(=O)(=O)c3cc(Cl)cc4ccoc34)c2F)cn1 [Example 173, N-(3-((2-aminopyrimidin-5-yl)ethynyl)-2,4-difluorophenyl)-5-chloro-1-benzofuran-7-sulfonamide] | 76%
99% | COc1ncc(Cl)cc1S(=O)(=O)Nc1ccc(F)c(C#Cc2cnc(N[C@H]3CC[C@H](O)CC3)nc2)c1F [Example 174, 5-chloro-N-(2,4-difluoro-3-((2-((trans-4-hydroxycyclohexyl)amino)pyrimidin-5-yl)ethynyl)phenyl)-2-methoxypyridine-3-sulfonamide] | 83%
99% | COc1ncc(Cl)cc1S(=O)(=O)Nc1ccc(F)c(C#Cc2cnc(N[C@H](C)CO)nc2)c1F [Example 175, 5-chloro-N-(2,4-difluoro-3-((2-(((2R)-1-hydroxypropan-2-yl)amino)pyrimidin-5-yl)ethynyl)phenyl)-2-methoxypyridine-3-sulfonamide] | 75%
100% | O=S(=O)(Nc1ccc(F)c(C#Cc2cnc(N[C@H]3CC[C@H](O)CC3)nc2)c1F)c1cc(Cl)cc(CO)c1Cl [Example 176, 2,5-dichloro-N-(2,4-difluoro-3-((2-((trans-4-hydroxycyclohexyl)amino)pyrimidin-5-yl)ethynyl)phenyl)-3-(hydroxymethyl)benzenesulfonamide] | 77%
100% | O=S(=O)(Nc1ccc(F)c(C#Cc2cnc(N[C@H]3CC[C@H](O)CC3)nn2)c1F)c1cc(Cl)cc(CO)c1Cl [Example 177, 2,5-dichloro-N-(2,4-difluoro-3-((3-((trans-4-hydroxycyclohexyl)amino)-1,2,4-triazin-6-yl)ethynyl)phenyl)-3-(hydroxymethyl)benzenesulfonamide] | 72%
100% | C[C@H](CO)Nc1ncc(C#Cc2c(F)ccc(NS(=O)(=O)c3cc(Cl)cc(CO)c3Cl)c2F)nn1 [Example 178, 2,5-dichloro-N-(2,4-difluoro-3-((3-(((2R)-1-hydroxypropan-2-yl)amino)-1,2,4-triazin-6-yl)ethynyl)phenyl)-3-(hydroxymethyl)benzenesulfonamide] | 74%
102% | O=S(=O)(Nc1ccc(F)c(C#Cc2cnc(NC3COC3)nn2)c1F)c1cc(Cl)cc(CO)c1Cl [Example 179, 2,5-dichloro-N-(2,4-difluoro-3-((3-(oxetan-3-ylamino)-1,2,4-triazin-6-yl)ethynyl)phenyl)-3-(hydroxymethyl)benzenesulfonamide] | 75%
103% | C[C@H](CO)Nc1ncc(C#Cc2c(F)ccc(NS(=O)(=O)c3cc(Cl)cc(CO)c3Cl)c2F)cn1 [Example 180, 2,5-dichloro-N-(2,4-difluoro-3-((2-(((2R)-1-hydroxypropan-2-yl)amino)pyrimidin-5-yl)ethynyl)phenyl)-3-(hydroxymethyl)benzenesulfonamide] | 76%
102% | O=S(=O)(Nc1ccc(F)c(C#Cc2cnc(NC3COC3)nc2)c1F)c1cc(Cl)cc(CO)c1Cl [Example 181, 2,5-dichloro-N-(2,4-difluoro-3-((2-(oxetan-3-ylamino)pyrimidin-5-yl)ethynyl)phenyl)-3-(hydroxymethyl)benzenesulfonamide] | 80%
